# Tested on: PGP1-derived RPE
# Test: Small molecule screen for reprogramming of PGP1-derived RPE to neural retina (induction of fluorescent reporter expression)
# Settings: 40 μM; D0, D5 and D10 of treatment (FIG. 21)
# Method: A second small molecule screen tested 180 compounds at a concentration of 40 μM designed to target epigenetic pathways (from the Selleck Chemicals Epigenetic Compounds Library L1900).
row,Compound,subsequent induction of eGFP expression (retinal ganglion cell reporter) in PGP1-derived RPE
1,BI 847325,subsequently induces the expression of eGFP

# Same assay, conditions: Selleck Chemicals Epigenetic Compounds Library L1900; 40 μM
row,Compound,induction of Cerulean expression in PGP1-derived RPE
1,O=C(O)c1ccc(O)c2ncccc12 [Carboxy-8-hydroxyquinoline],showed evidence of inducing Cerulean expression
2,CCn1cc(-c2cccc(C(F)(F)F)c2)c2sc(C(=N)NC3CCS(=O)(=O)CC3)cc2c1=O [I-BRD9],showed evidence of inducing Cerulean expression
3,Cc1c(CN2CCC(Nc3ncnc4sc(CC(F)(F)F)cc34)CC2)ccc2[nH]c(C#N)cc12 [MI 463],showed evidence of inducing Cerulean expression
4,CN(C)CCCNC(=O)c1ccc(-c2cc(O)c3ncccc3c2)cc1 [ML324],showed evidence of inducing Cerulean expression
5,CN1CCN(c2ccc(-c3cccc(CN4CCOCC4)c3)cc2NC(=O)c2c[nH]c(=O)cc2C(F)(F)F)CC1 [OICR-9429],showed evidence of inducing Cerulean expression
6,C1=C/COCc2cc(ccc2OCCN2CCCC2)Nc2nccc(n2)-c2cccc(c2)COC/1 [Pacritinib],showed evidence of inducing Cerulean expression
7,O=C(Nc1ccccc1-c1cn2c(CN3CC[C@@H](O)C3)csc2n1)c1ccc2ccccc2c1 [SSRT2183],showed evidence of inducing Cerulean expression
8,COc1cc2c(Nc3ccc(NC(=O)c4ccccc4)cc3)ncnc2cc1OCCCN1CCOCC1 [ZM 447439],showed evidence of inducing Cerulean expression
9,BI 847325,showed evidence of inducing Cerulean expression

# Same assay, conditions: first library of 127 compounds; 5-15 days of treatment; at least 9 different replicates; U0126 39 μM, SC 79 110 μM, KU 0063794 3 μM
row,Compound,induction of Cerulean expression (blue fluorescent cells) in PGP1-derived RPE
1,COc1ccc(-c2ccc3c(N4CCOCC4)nc(N4C[C@@H](C)O[C@@H](C)C4)nc3n2)cc1CO [KU 0063794],produced blue fluorescent cells
2,CCOC(=O)C1=C(N)Oc2ccc(Cl)cc2C1C(C#N)C(=O)OCC (stereo not shown) [SC 79],produced blue fluorescent cells
3,N#CC(=C(/N)Sc1ccccc1N)/C(C#N)=C(\N)Sc1ccccc1N [U0126],produced blue fluorescent cells

# From patent publication US20260015581A1, “METHODS FOR THE PRODUCTION OF RETINAL CELLS” (MIAMI UNIVERSITY, priority 2018, published 2026)
